Source: PMC3075623 (2011)

Target: T1, ABL2 (ABL-related gene, ARG) (Homo sapiens, UniProt P42684)
T1 sequence (P42684 279-546): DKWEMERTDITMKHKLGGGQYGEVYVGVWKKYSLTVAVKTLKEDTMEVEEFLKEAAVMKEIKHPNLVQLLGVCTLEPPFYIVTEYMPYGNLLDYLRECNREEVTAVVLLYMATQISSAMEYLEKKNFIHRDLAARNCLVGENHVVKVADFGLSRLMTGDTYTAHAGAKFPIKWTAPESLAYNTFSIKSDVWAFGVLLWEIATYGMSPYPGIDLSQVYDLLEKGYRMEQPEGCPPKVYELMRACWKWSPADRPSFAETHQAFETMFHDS
Test: cocrystal structure
Format: binding

Nc1nc(Nc2ccc(S(N)(=O)=O)cc2)nn1C(=S)Nc1c(F)cccc1F [compound 2, 5-amino-3-((4-(aminosulfonyl)phenyl)amino)-N-(2,6-difluorophenyl)-1H-1,2,4-triazole-1-carbothioamide]
cocrystal structure: The ligand is bound to the protein by hydrogen bonds to the backbone carbonyls of residues Glu362 and Met364
